The values below come from patent EP4772514A1, “MACROCYCLIC COMPOUNDS, PREPARATION METHOD THEREFOR, AND USE THEREOF” (Genfleet Therapeutics (Shanghai) Inc., priority 2023, dated 2025).

Read-outs that look alike come from different tables or passages of the source.

What all share (assay type): cell-based
Test [1] concerns p-ERK. Description: Cell p-ERK assay (HTRF, Advance ERK phospho-T202/Y204 kit) in NCI-H441 cells. The settings on record: NCI-H441, human non-small cell lung cancer cell strain, KRAS G12V mutation, 3 h compound incubation. A digest of the protocol: (§1)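 AsPC-1 (KRAS G12D) or NCI-H441 (KRAS G12V) cells seeded overnight, then treated 3 h at 37 °C with compound (0.1% DMSO) in RPMI-1640/10% FBS. Lysates assayed for ERK phospho-T202/Y204 by HTRF; inhibition vs DMSO and blank wells, IC50 from four-parameter fit.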
Background: TR-FRET usually uses a lanthanide donor and a delayed reading to cut background.

Test [2] has as its system AsPC-1 cells. The test is described as follows: 3D cell proliferation assay (CellTiter Glo-3D) in AsPC-1 cells. The following applies: AsPC-1, human pancreatic cancer cell strain, KRAS G12D mutation, 3D culture, 2% FBS, 5 days, read-out: AsPC-1 AP IC50. In outline:
(§2)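 KRAS^G12V NCI-H441 and KRAS^G12D AsPC-1 cells (800 cells/well each) grown in RPMI-1640 with 2% FBS and treated the day after seeding with 3.16-fold compound dilutions (0.1% DMSO) for 5 days at 37 °C. Viability by CellTiter-Glo 3D luminescence; inhibition versus DMSO and cell-free controls, IC50 from four-parameter fit.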
For orientation: Cellular ATP, detected with luciferase, serves as a proxy for viable cell number.

For test [3], the system named is NCI-H441 cells. The test is described as follows: 3D cell proliferation assay (CellTiter Glo-3D) in NCI-H441 cells. The settings on record: NCI-H441, human lung cancer cell strain, KRAS G12V mutation, 3D culture, 2% FBS, 5 days, read-out: H441 AP IC50. A digest of the protocol:
as §2

Test [4] has as its system p-ERK. The test is described as follows: Cell p-ERK assay (HTRF, Advance ERK phospho-T202/Y204 kit) in AsPC-1 cells. The following applies: AsPC-1, human pancreatic cancer cell strain, KRAS G12D mutation, 3 h compound incubation. In outline: as §1

For orientation: IC50 means the concentration at which inhibition is half-maximal. Regarding `CCn1c(F)c2c(c1-c1cc(C#CCN3CCC(C#N)CC3)cnc1[C@H](C)OC)CC(C)(C)COC(=O)[C@@H]1CCCN(N1)C(=O)[C@@H](NC(=O)[C@H]1[C@H](C)[C@@H]1C)Cc1nc(cs1)/C=C/2` (atropisomer, axis not shown; (Ra)) [Compound Z139, (1r, 2R, 3S)-N-((4^2Z, 8^3S,2E,6S)-(Ra)-1^5-(5-(3-(4-cyanopiperidin-1-yl)prop-1-yn-1-yl)-2-((S)-1-methoxyethyl)pyridin-3-yl)-1^1-ethyl-1^2-fluoro-12,12-dimethyl-7,9-dioxo-8^1,8^1,8^1,8^4,8^5,8^6-hexahydro-1^1H-10-oxa-4(4,2)-thiazola-8(1,3)-pyridazina-1(3,4)-pyrrolacyclotridecaphan-2-en-6-yl)-2,3-dimethylcyclopropane-1-carboxamide], the IC50 in test [1] (Homo sapiens, NCI-H441, 3 h) was found to be 0.42 nM; in test [2] (ASPC1, 120 h) it was 0.1 nM; in test [3] (Homo sapiens, NCI-H441, 120 h), 0.12 nM; in test [4] (ASPC1), 0.4 nM.
Taken in the same sequence, the figures for `CCn1c(F)c2c(c1-c1cc(C#CCN3CCC(C#N)(CN)CC3)cnc1[C@H](C)OC)CC(C)(C)COC(=O)[C@@H]1CCCN(N1)C(=O)[C@@H](NC(=O)[C@H]1[C@H](C)[C@@H]1C)Cc1nc(cs1)/C=C/2` (atropisomer, axis not shown; (Ra)) [Compound Z145, (1r,2R,3S)-N-((4^2Z, 8^3S, 2E, 6S)-(Ra)-1^5-(5-(3-(4-(aminomethyl)-4-cyanopiperidin-1-yl)prop-1-yn-1-yl)-2-((S)-1-methoxyethy)pyridin-3-yl)-1^1-ethyl-1^2-fluoro-12,12-dimethyl-7,9-dioxo-8^1,8^2,8^3,8^4,8^5,8^6-hexahydro-1^1H-10-oxa-4(4,2)-thiazola-8(1,3)-pyridazina-1(3,4)-pyrrolacyclotridecaphan-2-en-6-yl)-2,3-dimethylcyclopropane-1-carboxamide] were 0.29 nM, 0.15 nM, 0.2 nM and 0.15 nM.
Regarding `CCn1cc2c(c1-c1cc(C#CCN3CCOCC3)cnc1[C@H](C)OC)CC(C)(C)COC(=O)[C@@H]1CCCN(N1)C(=O)[C@@H](NC(=O)[C@H]1[C@H](C)[C@@H]1C)Cc1nc(cs1)/C=C/2` (atropisomer, axis not shown; (Ra)) [Compound Z172, (1r,2R,3S)-N-((4^2Z, 8^1S, 2E, 6S)-1^1-ethyl-(Ra)-1^5-(2-((S)-1-methoxyethyl)-5-(3-morpholinoprop-1-yn-1-yl)pyridin-3-yl)-12,12-dimethyl-7,9-dioxo-8^1,8^2,8^3,8^4,8^5,8^6-hexahydro-1^1H-10-oxa-4(4,2)-thiazola-8(1,3)-pyridazina-1(3,4)-pyrrolacyclotridecaphan-2-en-6-yl)-2,3-dimethylcyclopropane-1-carboxamide], the IC50 was 0.75 nM in test [1] (Homo sapiens, NCI-H441, 3 h); 0.4 nM in test [2] (ASPC1, 120 h); 0.41 nM in test [3] (Homo sapiens, NCI-H441, 120 h); 0.74 nM in test [4] (ASPC1).
On to `CCn1c(F)c2c(c1-c1cc(C#CCN3CCOCC3)cnc1[C@H](C)OC)CC(C)(C)COC(=O)[C@@H]1CCCN(N1)C(=O)[C@@H](NC(=O)[C@H]1[C@H](C)[C@@H]1C)Cc1nc(cs1)/C=C/2` (atropisomer, axis not shown; (Ra)) [Compound Z229, (1r, 2R, 3S)-N-((4^2Z, 8^3S, 2E,6S)-1^1-ethyl-1^2-fluoro-(Ra)-1^5-(2-((S)-1-methoxyethyl)-5-(3-morpholinoprop-yn-1-yl)pyridin-3-yl)-12,12-dimethyl-7,9-dioxo-8^1,8^2,8^3,8^4,8^5,8^6-hexahydro-1^1H-10-oxa-4(4,2)-thiazola-8(1,3)-pyridazina-1(3,4)-pyrrolacyclotridecaphan-2-en-6-yl)-2,3-dimethylcyclopropane-1-carboxamide], for which the IC50 is 0.6 nM in test [1] (Homo sapiens, NCI-H441, 3 h); 0.56 nM in test [2] (ASPC1, 120 h); 0.56 nM in test [3] (Homo sapiens, NCI-H441, 120 h); 1.04 nM in test [4] (ASPC1).
In the case of `CCn1cc2c(c1-c1cc(N3CCN(C)CC3)cnc1[C@H](C)OC)CC(C)(C)COC(=O)[C@@H]1CCCN(N1)C(=O)[C@@H](NC(=O)[C@H]1[C@H](C)[C@@H]1C)Cc1nc(cs1)/C=C/2` (single isomer, unassigned) [Compound Z8], the IC50 was 4.74 nM in test [1] (Homo sapiens, NCI-H441, 3 h); 2.37 nM in test [2] (ASPC1, 120 h); 2.39 nM in test [3] (Homo sapiens, NCI-H441, 120 h); 4.98 nM in test [4] (ASPC1).
In the case of `CO[C@@H](C)c1ncc(C#CCN2CCS(=O)(=O)CC2)cc1-c1c2c(cn1C(C)C)/C=C/c1csc(n1)C[C@H](NC(=O)[C@H]1[C@H](C)[C@@H]1C)C(=O)N1CCC[C@H](N1)C(=O)OCC(C)(C)C2` (single isomer, unassigned) [Compound Z10], the IC50 in test [1] (Homo sapiens, NCI-H441, 3 h) worked out at 0.83 nM; in test [2] (ASPC1, 120 h), 0.56 nM; in test [3] (Homo sapiens, NCI-H441, 120 h), 0.42 nM; in test [4] (ASPC1), 1.2 nM.
As for `CO[C@@H](C)c1ncc(C#CCN2CCS(=O)(=O)CC2)cc1-c1c2c(nn1C(C)C)/C=C/c1csc(n1)C[C@H](NC(=O)[C@H]1[C@H](C)[C@@H]1C)C(=O)N1CCC[C@H](N1)C(=O)OCC(C)(C)C2` (single isomer, unassigned) [Compound Z15], the IC50 in test [1] (Homo sapiens, NCI-H441, 3 h) is 6.74 nM; in test [2] (ASPC1, 120 h), 10.6 nM; in test [3] (Homo sapiens, NCI-H441, 120 h), 4.31 nM; in test [4] (ASPC1) it was 20.3 nM.
On to `CCn1c(F)c2c(c1-c1cc(N3CCN(C)CC3)cnc1C(C)OC)CC(C)(C)COC(=O)C1CCCN(N1)C(=O)C(NC(=O)C1C(C)C1C)Cc1nc(cs1)C=C2` [Compound Z75, (1r,2S,3R)-N-((4^2Z,8^3R,2E,6R)-1^1-ethyl-1^2-fluoro-1^5-(2-((S)-1-methoxyethyl)-5-(4-methylpiperazin-1-yl)pyridin-3-yl)-12,12-dimethyl-7,9-dioxo-8^1,8^2,8^3,8^4,8^5,8^6-hexahydro-1^1H-10-oxa-4(4,2)-thiazola-8(1,3)-pyridazina-1(3,4)-pyrrolacyclotridecaphan-2-en-6-yl)-2,3-dimethylcyclopropane-1-carboxamide], for which the half-inhibitory concentration (IC50) in test [1] was 1.3 nM; in test [2] it was 2.17 nM; in test [3], 1.85 nM; in test [4], 1.46 nM.
With `CCn1nc2c(c1-c1cc(C#CCN3CCC(C#N)(CN)CC3)cnc1[C@H](C)OC)CC(C)(C)COC(=O)[C@@H]1CCCN(N1)C(=O)[C@@H](NC(=O)[C@H]1[C@H](C)[C@@H]1C)Cc1nc(cs1)/C=C/2` [Compound Z119], the IC50 in test [1] (Homo sapiens, NCI-H441, 3 h) was found to be 1.81 nM; in test [2] (ASPC1, 120 h) it was 2.39 nM; in test [3] (Homo sapiens, NCI-H441, 120 h), 1.45 nM; in test [4] (ASPC1), 2.29 nM.
With “(1r,2R,3S)-N-((4^2Z,8^3R,2E,6R)-1^1-ethyl-(Sa)-1^5-(2-((S)-1-methoxyethyl)-5-(4-methylpiperazin-1-yl)pyridin-3-yl)-12,12-dimethyl-7,9-dioxo-8^1,8^2,8^3,8^4,8^5,8^6-hexahydro-1^1H-10-oxa-4(4,2)-thiazola-8(1,3)-pyridazina-1(3,4)-pyrrolacyclotridecaphan-2-en-6-yl)-2,3-dimethylcyclopropane-1-carboxamide [Compound Z8-1]”, the IC50 in test [1] is 98.6 nM; in test [2] it was 64.3 nM; in test [3], 62.7 nM; in test [4], 103 nM.
